From patent US9346754B2, “Method of treating advanced non-alcoholic steatohepatitis” (priority 2014, dated 2016)

What was measured:
[1] = test system: STAM Model of Advanced Non-Alcoholic Steatohepatitis; assay: Sirius red staining, percentage of fibrosis area in STAM mice; type: in vivo, C57BL/6 mice; conditions: for Sirius red-positive area (fibrosis area): mean ± SD
Description: For HE staining, sections were cut from paraffin blocks of liver tissue prefixed in Bouin's solution and stained with Lillie-Mayer's Hematoxylin (Muto Pure Chemicals, Japan) and eosin solution (Wako Pure Chemical Industries). NAFLD Activity score (NAS) was calculated according to the criteria of Kleiner (Kleiner D E. et al., Hepatology, 2005; 41:1313). To visualize collagen deposition, Bouin's fixed liver sections were stained using picro-Sirius red solution (Waldeck, Germany). For quantitative analysis of fibrosis area, inflammation area, and semi-quantification of α-SMA, bright field images of Sirius red-stained, F4/80- and α-SMA-immunostained sections were captured around the central vein using a digital camera (DFC280: Leica Microsystems, Germany) at 200-fold magnification, and the positive areas in 5 fields/section were measured using ImageJ software (National Institute of Health, USA). […] P values<0.05 were considered statistically significant. […] Results were expressed as mean±SD.

Five-Lipoxygenase mRNA = assay: Liver gene expression by quantitative RT-PCR: Five-Lipoxygenase; type: in vivo, C57BL/6 mice
Description: (§1) Total RNA was extracted from liver samples using RNAiso (Takara Bio, Japan) according to the manufacturer's instructions. One μg of RNA was reverse-transcribed using a reaction mixture containing 4.4 mM MgCl2 (F. Hoffmann-La Roche, Switzerland), 40 U RNase inhibitor (Toyobo, Japan), 0.5 mM dNTP (Promega, USA), 6.28 μM random hexamer (Promega), 5× first strand buffer (Promega), 10 mM dithiothreitol (Invitrogen, USA) and 200 U MMLV-RT (Invitrogen) in a final volume of 20 μL. The reaction was carried out for 1 hour at 37° C., followed by 5 minutes at 99° C. Real-time PCR was performed using real-time PCR DICE and SYBR premix Taq (Takara Bio). To calculate the relative mRNA expression level, the expression of each gene was normalized to that of reference gene 36B4 (gene symbol: Rp1p0). Information of PCR-primer sets are described in Table 1. [table] […] P values<0.05 were considered statistically significant. […] Results were expressed as mean±SD.

[2] = Telmisartan 10 mg/kg oral once daily, 8 to 12 weeks of age
Description: NASH was induced in 50 male mice by a single subcutaneous injection of 200 μg streptozotocin (STZ, Sigma-Aldrich, USA) solution 2 days after birth and feeding with high fat diet (HFD, 57 kcal % fat, cat#: HFD32, CLEA Japan, Japan) after 4 weeks of age.
MN-001 was administered at doses of 10, 30, and 100 mg/kg once daily. Telmisartan was administered at a dose of 10 mg/kg once daily.
Statistical analyses were performed using Bonferroni Multiple Comparison Test on GraphPad Prism 4 (GraphPad Software, USA). P values<0.05 were considered statistically significant. A trend or tendency was assumed when a one-tailed t-test returned P values<0.10. Results were expressed as mean±SD.
The viability, clinical signs and behavior were monitored daily. Body weight was recorded before the treatment. […] The animals were sacrificed by exsanguination through direct cardiac puncture under ether anesthesia (Wako Pure Chemical Industries).

LTC4 synthase mRNA = assay: Liver gene expression by quantitative RT-PCR: LTC4 synthase; type: in vivo, C57BL/6 mice; conditions: Telmisartan 10 mg/kg oral once daily, 8 to 12 weeks of age
Description: as §1

FLAP mRNA = assay: Liver gene expression by quantitative RT-PCR: FLAP; type: in vivo, C57BL/6 mice; conditions: 100 mg/kg oral once daily, 8 to 12 weeks of age (MN-001-high)
Description: as §1

[3] = 10 mg/kg oral once daily, 8 to 12 weeks of age (MN-001-low; Telmisartan)
[4] = 10 mg/kg oral once daily, 8 to 12 weeks of age (MN-001-low n=10; Telmisartan n=9)
[5] = 30 mg/kg oral once daily, 8 to 12 weeks of age (MN-001-middle)
[6] = 100 mg/kg oral once daily, 8 to 12 weeks of age (MN-001-high)

Compound	Fibrosis area compared with the Vehicle group [1, 3]	Sirius red-positive area (fibrosis area) [1, 4] [%]	Five-Lipoxygenase mRNA expression levels compared with the Vehicle group (Five-Lipoxygenase mRNA; [3])	Mortality (animals found dead) [2]	LTC4 synthase mRNA expression levels compared with the Vehicle group (LTC4 synthase mRNA)	FLAP mRNA expression levels compared with the Vehicle group (FLAP mRNA)	Fibrosis area compared with the Vehicle group [1, 5]	Fibrosis area compared with the Vehicle group [1, 6]	Sirius red-positive area (fibrosis area) ([1]; 30 mg/kg oral once daily, 8 to 12 weeks of age (MN-001-middle, n=10)) [%]	Sirius red-positive area (fibrosis area) ([1]; 100 mg/kg oral once daily, 8 to 12 weeks of age (MN-001-high, n=10)) [%]	Five-Lipoxygenase mRNA expression levels compared with the Vehicle group (Five-Lipoxygenase mRNA; [5])	Five-Lipoxygenase mRNA expression levels compared with the Vehicle group (Five-Lipoxygenase mRNA; [6])
CCCc1nc2c(C)cc(-c3nc4ccccc4n3C)cc2n1Cc1ccc(-c2ccccc2C(=O)O)cc1 [Telmisartan, reference compound]	significantly decreased	0.49 ± 0.19	tended to decrease	One of the Telmisartan group was found dead on day 24	tended to decrease							
CCCc1c(SCCCOc2ccc(C(C)=O)c(OCCCC(=O)O)c2CCC)ccc(C(C)=O)c1O [MN-001]	significantly decreased	0.75 ± 0.40	no significant differences			tended to increase	tended to decrease	significantly decreased	0.95 ± 0.37	0.65 ± 0.28	no significant differences	tended to decrease
